# Values quoted from earlier work, collected in article PMC4667793 (Journal of medicinal chemistry, 2015).
# Structures can show the parent of a compound that is named as a salt.
# Target: MtBPL (Mycobacterium tuberculosis, UniProt I6YFP0)
# Settings: binding MtBPL; cited from earlier work
# Sequence of MtBPL (I6YFP0 whole entry, looked up): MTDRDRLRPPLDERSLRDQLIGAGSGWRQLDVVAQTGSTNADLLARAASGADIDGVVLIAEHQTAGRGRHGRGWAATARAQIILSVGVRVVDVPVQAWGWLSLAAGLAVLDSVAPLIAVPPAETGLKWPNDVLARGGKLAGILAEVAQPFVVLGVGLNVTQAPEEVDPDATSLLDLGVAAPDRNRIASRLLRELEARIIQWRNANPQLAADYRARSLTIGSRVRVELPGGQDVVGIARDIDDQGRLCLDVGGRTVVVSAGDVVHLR
smiles,measurement,value
"Nc1ncnc2c1ncn2[C@@H]1O[C@H](CNS(=O)(=O)NC(=O)CCCC[C@@H]2SC[C@@H]3NC(=O)N[C@@H]32)[C@@H](O)[C@H]1O [Compound 14, 5′-[N-(D-biotinoyl)sulfamoyl]amino-5′-deoxyadenosine triethylammonium salt]",times more tightly bound than biotin,"more than 1,700 times"
